Experimental findings from patent publication US20260308145A1, “CDK2 INHIBITORS AND METHODS OF USING SAME” (Shenzhen lonova Life Science Co., Ltd., priority 2023, published 2026) are described below.

The structures appear in SMILES notation.

Holding throughout (type): biochemical
Test [1] addresses T1, CDK6/cyclinD3 (Homo sapiens, UniProt Q00534).
T1 construct: purchased Carna Biosciences 04-107
The test is described as follows: Cyclin-dependent kinase activity assay (continuous ATP coupling assay), CDK6/cyclinD3. Particulars: CDK6/cyclinD3 25 nM, ATP 500 μM, Rb copeptide 500 μM, 15 min preincubation, pH 7.5, 1% DMSO. Summed up: (§1)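 PK/LDH-coupled continuous assay, ATP at each kinase's Km, Tris pH 7.5 with 1% DMSO final; enzyme preincubated 15 min with compound (10 μM to 0.05 nM, 1:3), NADH fluorescence decrease (ex 340/em 460) gave velocities. IC50 by 4-variable fit; Ki by quadratic/Morrison fit.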

The target in test [2] is T2, CDK2/cyclinE1 (Homo sapiens, UniProt P24941).
T2 construct: purchased Carna Biosciences 04-165
In words: Cyclin-dependent kinase activity assay (continuous ATP coupling assay), CDK2/cyclinE1. The conditions noted are these: CDK2/cyclinE1 5 nM, ATP 300 μM, Rb copeptide 100 μM, 15 min preincubation, pH 7.5, 1% DMSO. Summed up: as §1

The target of test [3] is T3, CDK4/cyclinD3 (Homo sapiens, UniProt P11802).
T3 construct: purchased Carna Biosciences 04-105
T3 sequence (P11802 whole entry): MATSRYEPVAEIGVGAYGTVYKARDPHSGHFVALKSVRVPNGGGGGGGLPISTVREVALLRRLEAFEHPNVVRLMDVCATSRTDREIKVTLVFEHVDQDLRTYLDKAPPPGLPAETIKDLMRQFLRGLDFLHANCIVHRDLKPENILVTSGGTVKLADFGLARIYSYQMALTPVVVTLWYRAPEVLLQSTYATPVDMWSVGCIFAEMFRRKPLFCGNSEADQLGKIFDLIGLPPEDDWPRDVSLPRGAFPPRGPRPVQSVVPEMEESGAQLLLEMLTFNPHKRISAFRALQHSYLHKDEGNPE
T3 sequence (P30281 whole entry partner): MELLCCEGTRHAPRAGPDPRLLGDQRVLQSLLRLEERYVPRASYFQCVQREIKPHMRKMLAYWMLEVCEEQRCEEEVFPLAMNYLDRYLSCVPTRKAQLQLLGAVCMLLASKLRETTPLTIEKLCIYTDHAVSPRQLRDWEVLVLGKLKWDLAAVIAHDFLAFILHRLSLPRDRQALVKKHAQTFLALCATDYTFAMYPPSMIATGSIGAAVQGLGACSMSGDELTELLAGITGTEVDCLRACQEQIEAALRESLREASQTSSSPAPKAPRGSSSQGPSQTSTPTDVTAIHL
In words: Cyclin-dependent kinase activity assay (continuous ATP coupling assay), CDK4/cyclinD3. The conditions noted are these: CDK4/cyclinD3 60 nM, ATP 500 μM, Rb copeptide 500 μM, 15 min preincubation, pH 7.5, 1% DMSO. Summed up:
as §1

Test [4] has as its target T4, CDK1/cyclinB1 (Homo sapiens, UniProt P06493).
T4 construct: purchased Carna Biosciences 04-102
In words: Cyclin-dependent kinase activity assay (continuous ATP coupling assay), CDK1/cyclinB1. The conditions noted are these: CDK1/cyclinB1 10 nM, ATP 200 μM, Histone1 copeptide 100 μM, 15 min preincubation, pH 7.5, 1% DMSO. Summed up:
as §1

What is called IC50 is the point on the concentration scale where inhibition reaches its midpoint. Read a high IC50 as a need for much substance.

T4 sequence (P06493 whole entry): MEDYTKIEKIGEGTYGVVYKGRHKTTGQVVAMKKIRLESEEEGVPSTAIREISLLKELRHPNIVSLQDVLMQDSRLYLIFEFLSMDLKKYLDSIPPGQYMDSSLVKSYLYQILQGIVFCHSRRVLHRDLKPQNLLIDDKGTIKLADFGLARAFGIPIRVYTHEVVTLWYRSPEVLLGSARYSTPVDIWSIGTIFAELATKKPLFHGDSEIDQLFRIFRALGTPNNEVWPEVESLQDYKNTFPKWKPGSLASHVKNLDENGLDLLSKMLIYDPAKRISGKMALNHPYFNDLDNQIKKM
T4 sequence (P14635 whole entry partner): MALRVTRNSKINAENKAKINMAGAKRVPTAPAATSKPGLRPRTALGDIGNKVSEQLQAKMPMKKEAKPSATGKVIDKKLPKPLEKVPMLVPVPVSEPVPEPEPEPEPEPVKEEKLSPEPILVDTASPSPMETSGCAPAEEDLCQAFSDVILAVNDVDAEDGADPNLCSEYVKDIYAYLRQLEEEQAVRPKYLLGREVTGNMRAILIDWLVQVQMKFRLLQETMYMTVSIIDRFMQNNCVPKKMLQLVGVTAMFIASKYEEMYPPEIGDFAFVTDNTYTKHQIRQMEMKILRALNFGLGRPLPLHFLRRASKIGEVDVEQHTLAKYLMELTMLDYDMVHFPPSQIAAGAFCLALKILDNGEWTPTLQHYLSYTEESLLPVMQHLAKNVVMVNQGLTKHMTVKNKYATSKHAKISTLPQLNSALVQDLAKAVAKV
T1 sequence (Q00534 whole entry): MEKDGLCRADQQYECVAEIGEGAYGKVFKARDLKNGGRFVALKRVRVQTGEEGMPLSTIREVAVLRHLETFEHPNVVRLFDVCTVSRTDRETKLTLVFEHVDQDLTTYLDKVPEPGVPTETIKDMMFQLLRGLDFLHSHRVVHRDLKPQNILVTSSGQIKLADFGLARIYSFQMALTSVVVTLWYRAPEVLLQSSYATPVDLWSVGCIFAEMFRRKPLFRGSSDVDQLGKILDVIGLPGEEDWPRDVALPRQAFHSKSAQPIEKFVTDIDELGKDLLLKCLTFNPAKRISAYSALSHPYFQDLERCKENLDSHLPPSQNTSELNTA
T1 sequence (P30281 whole entry partner): as the sequence (P30281 whole entry partner) above

`CNS(=O)(=O)c1ccc(Nc2ncc(C(F)(F)F)c(-n3cc(Br)cn3)n2)cc1` [Example 44]: the IC50 in test [1] was at least 100 nM; in test [2], 10 to 100 nM; in test [3] it was at least 100 nM; in test [4], at least 100 nM.
On to `CNS(=O)(=O)c1ccc(Nc2ncc(C(F)(F)F)c(-n3cc([C@@H]4CCC[C@H]4O)cn3)n2)cc1` (single isomer, unassigned) [Example 74], for which the IC50 is at least 100 nM in test [1], 10 to 100 nM in test [2], 10 to 100 nM in test [3] and at least 100 nM in test [4].
On to `CNS(=O)(=O)c1ccc(Nc2ncc(C(F)(F)F)c(-n3cc(C4CCN(C)C4)cn3)n2)cc1` (single isomer, unassigned) [Example 96], for which the IC50 in test [1] was 10 to 100 nM; in test [2], at most 10 nM; in test [3] it was 10 to 100 nM; in test [4], 10 to 100 nM.
As to `CNS(=O)(=O)c1ccc(Nc2ncc(C(F)(F)F)c(-n3cc(-c4ccoc4)cn3)n2)cc1` [Example 86], the IC50 in test [1] is at least 100 nM; in test [2] it was 10 to 100 nM; in test [3], at least 100 nM; in test [4], at least 100 nM.
Consider `O=S(=O)(NC1CC(F)(F)C1)c1ccc(Nc2ncc(C(F)(F)F)c(-n3cccn3)n2)cc1` [Example 41], for which the IC50 was at least 100 nM in test [1], 10 to 100 nM in test [2], at least 100 nM in test [3] and at least 100 nM in test [4].
`CNS(=O)(=O)c1ccc(Nc2ncc(C(F)(F)F)c(-n3cc([C@@H]4CC[C@@H](O)C4)cn3)n2)cc1` (single isomer, unassigned) [Example 78]: the IC50 in test [1] is 10 to 100 nM; in test [2] it was at most 10 nM; in test [3], 10 to 100 nM; in test [4], at least 100 nM.
As to `CNS(=O)(=O)c1ccc(Nc2ncc(C(F)(F)F)c(-n3cc([C@H]4C[C@](C)(O)C4)cn3)n2)cc1` (single isomer, unassigned) [Example 104, 4-((4-(4-((1s,3s)-3-hydroxy-3-methylcyclobutyl)-1H-pyrazol-1-yl)-5-(trifluoromethyl)pyrimidin-2-yl)amino)-N-methylbenzenesulfonamide], the IC50 in test [1] was at least 100 nM; in test [2], 10 to 100 nM; in test [3], 10 to 100 nM; in test [4] it was at least 100 nM.
In the case of `CC(C)(O)Cc1cnn(-c2nc(Nc3ccc(S(N)(=O)=O)cc3)ncc2C(F)(F)F)c1` [Example 71], the IC50 in test [1] was 10 to 100 nM; in test [2] it was at most 10 nM; in test [3], at most 10 nM; in test [4] it was 10 to 100 nM.
On to `CNS(=O)(=O)c1ccc(Nc2ncc(C(F)(F)F)c(-n3cc(C4CCOC4)cn3)n2)cc1` (single isomer, unassigned) [Example 90], for which the concentration for half-maximal inhibition (IC50) in test [1] is 10 to 100 nM; in test [2] it was 10 to 100 nM; in test [3] it was 10 to 100 nM; in test [4], at least 100 nM.
For the molecule `O=S(=O)(NCCCO)c1ccc(Nc2ncc(C(F)(F)F)c(-n3cccn3)n2)cc1` [Example 112], the IC50 is at least 100 nM in test [1], at most 10 nM in test [2], at least 100 nM in test [3] and at least 100 nM in test [4].
For `CNS(=O)(=O)c1ccc(Nc2ncc(C(F)(F)F)c(-n3cccn3)n2)c(F)c1` [Example 27], the concentration for half-maximal inhibition (IC50) in test [1], in test [2], in test [3] and in test [4] was at least 100 nM throughout.
Turning to `CNS(=O)(=O)c1ccc(Nc2ncc(Cl)c(-n3cc(CC(C)(C)O)cn3)n2)cc1` [Example 65], the IC50 in test [1] is 10 to 100 nM; in test [2], at most 10 nM; in test [3], 10 to 100 nM; in test [4], 10 to 100 nM.
Regarding `CNS(=O)(=O)c1ccc(Nc2ncc(C(F)(F)F)c(-n3ncc(CC(C)(C)O)c3C)n2)cc1` [Example 69], the IC50 is at least 100 nM in test [1], 10 to 100 nM in test [2], at least 100 nM in test [3] and at least 100 nM in test [4].
With `CNS(=O)(=O)c1ccc(Nc2ncc(C#N)c(-n3cc(CC(C)(C)O)cn3)n2)cc1` [Example 64], the half-maximal inhibitory concentration (IC50) was 10 to 100 nM in test [1], at most 10 nM in test [2], 10 to 100 nM in test [3] and at least 100 nM in test [4].
